Source: US20250152585A1, “PHARMACEUTICAL COMPOUND” (Duke Street Bio Limited, priority 2022, published 2025)

Experiments:
[1] = target: T1, full length N-terminally FLAG-tagged PARP1 (Homo sapiens, UniProt P09874); assay: PARP1 biochemical DELFIA assay (auto-PARylation); design: recombinant full length human N-terminally FLAG-tagged PARP1; conditions: binned IC50, PARP1 biochemical DELFIA assay
[2] = target: T2, N-terminally FLAG-tagged PARP2 (amino acids 1-583) (Homo sapiens, UniProt Q9UGN5); assay: PARP2 probe displacement HTRF assay; type: binding; conditions: binned Kd, PARP2 probe displacement HTRF
T2 construct: N-terminally FLAG-tagged PARP2 (amino acids 1-583)
T2 sequence (Q9UGN5 whole entry, the tested form may be a part): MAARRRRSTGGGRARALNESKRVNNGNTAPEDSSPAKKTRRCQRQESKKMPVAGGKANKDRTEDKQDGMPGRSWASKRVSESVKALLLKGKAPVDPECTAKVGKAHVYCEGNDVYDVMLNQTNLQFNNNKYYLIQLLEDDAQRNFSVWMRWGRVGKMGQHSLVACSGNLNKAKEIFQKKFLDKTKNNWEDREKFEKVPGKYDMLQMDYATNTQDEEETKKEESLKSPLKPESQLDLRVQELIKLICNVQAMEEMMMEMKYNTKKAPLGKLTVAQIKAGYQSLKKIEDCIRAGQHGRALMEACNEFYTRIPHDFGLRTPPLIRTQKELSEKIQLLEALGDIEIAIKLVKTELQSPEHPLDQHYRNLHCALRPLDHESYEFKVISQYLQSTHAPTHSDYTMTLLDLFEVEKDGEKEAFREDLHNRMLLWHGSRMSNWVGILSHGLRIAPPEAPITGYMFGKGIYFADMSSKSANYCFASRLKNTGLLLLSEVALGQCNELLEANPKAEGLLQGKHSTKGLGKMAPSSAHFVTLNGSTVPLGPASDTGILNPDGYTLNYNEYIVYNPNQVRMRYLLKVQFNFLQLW
Procedure: Data analysis was performed identical as for PARP1.

[3] = target: T1, full length N-terminally FLAG-tagged PARP1; assay: PARP1 probe displacement HTRF assay; conditions: for Selectivity: PARP1 over PARP2, ratio Kd (PARP2)/Kd (PARP1), probe displacement HTRF; for Kd: read-out: PARP1 HTRF, binned Kd, PARP1 probe displacement HTRF

T1 sequence (P09874 whole entry, the tested form may be a part): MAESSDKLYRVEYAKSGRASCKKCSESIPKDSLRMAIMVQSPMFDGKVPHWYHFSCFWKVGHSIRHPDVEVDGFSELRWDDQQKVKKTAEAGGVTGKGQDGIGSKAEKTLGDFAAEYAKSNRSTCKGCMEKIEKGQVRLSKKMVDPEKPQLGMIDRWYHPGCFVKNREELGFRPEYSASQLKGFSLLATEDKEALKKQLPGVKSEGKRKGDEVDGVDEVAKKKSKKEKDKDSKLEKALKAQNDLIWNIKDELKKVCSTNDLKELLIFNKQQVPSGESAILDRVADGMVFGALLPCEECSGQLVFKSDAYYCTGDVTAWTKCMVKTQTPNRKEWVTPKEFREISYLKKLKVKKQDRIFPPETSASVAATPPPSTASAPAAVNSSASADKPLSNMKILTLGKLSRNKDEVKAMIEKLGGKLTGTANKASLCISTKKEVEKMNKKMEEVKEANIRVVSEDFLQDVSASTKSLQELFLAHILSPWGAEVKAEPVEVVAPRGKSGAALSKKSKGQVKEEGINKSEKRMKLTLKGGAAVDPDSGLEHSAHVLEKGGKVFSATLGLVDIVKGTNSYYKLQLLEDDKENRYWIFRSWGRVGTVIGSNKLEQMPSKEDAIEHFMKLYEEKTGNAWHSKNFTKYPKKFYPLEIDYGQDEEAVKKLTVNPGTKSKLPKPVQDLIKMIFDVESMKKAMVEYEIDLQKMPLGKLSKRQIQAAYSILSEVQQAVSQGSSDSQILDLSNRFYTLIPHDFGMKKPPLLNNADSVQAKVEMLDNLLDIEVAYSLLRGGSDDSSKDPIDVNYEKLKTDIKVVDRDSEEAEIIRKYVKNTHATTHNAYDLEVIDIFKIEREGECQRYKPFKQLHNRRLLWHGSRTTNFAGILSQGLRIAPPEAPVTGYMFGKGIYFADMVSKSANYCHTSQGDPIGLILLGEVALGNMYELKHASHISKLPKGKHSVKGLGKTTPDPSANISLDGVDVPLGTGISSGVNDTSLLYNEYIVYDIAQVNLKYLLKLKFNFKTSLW

For `CNC(=O)c1ccc(N2CCC(N3CCC(c4nc5cccc(F)c5c(=O)[nH]4)C3)CC2)cn1` (single isomer, unassigned) [Compound 101a], the IC50 [1] was 10 to 100 nM, the Kd [2] was 100 to 1000 nM and the Selectivity [3] was “+ (+ indicates a value of 10 to less than 50)”. The Kd [3] was 10 to 100 nM.

In the case of `CNC(=O)c1ccc(N2CCC(N3CCC(c4nc5cccc(F)c5c(=O)[nH]4)C3)CC2)cn1` (single isomer, unassigned) [Compound 101b], the IC50 [1] is reported as under 10 nM, the Kd [2] is reported as 100 to 1000 nM and the Selectivity [3] is reported as “+++ (+++ indicate a value of at least 100)”. For the same molecule, the Kd [3] was under 10 nM.

In the case of `CNC(=O)c1ccc(N2CCC(N3CCCC(c4nc5cnccc5c(=O)[nH]4)C3)CC2)cn1` (single isomer, unassigned) [Compound 106a], the IC50 [1] is reported as 100 to 1000 nM, the Kd [2] is reported as over 10000 nM and the Selectivity [3] is reported as “+ (+ indicates a value of 10 to less than 50)”. It also gave a Kd [3] of 100 to 1000 nM.

`CNC(=O)c1ccc(N2CCC(N3CCCC(c4nc5cnccc5c(=O)[nH]4)C3)CC2)cn1` (single isomer, unassigned) [Compound 106b] was tested, and the IC50 [1] was 1000 to 10000 nM, the Kd [2] was over 10000 nM and the Selectivity [3] was “− (− indicates a value of less than 10)”. It also gave a Kd [3] of over 10000 nM.

`O=c1[nH]c(C2CCN(C3CCN(c4ccc(F)cc4F)CC3)C2)nc2ccccc12` (single isomer, unassigned) [Compound 107a] was tested, and the IC50 [1] was 10 to 100 nM, the Kd [2] was 1000 to 10000 nM and the Selectivity [3] was “+ (+ indicates a value of 10 to less than 50)”. The Kd [3] was 10 to 100 nM.

`O=c1[nH]c(C2CCN(C3CCN(c4ccc(F)cc4F)CC3)C2)nc2ccccc12` (single isomer, unassigned) [Compound 107b] was tested, and the IC50 [1] was 100 to 1000 nM, the Kd [2] was 100 to 1000 nM and the Selectivity [3] was “− (− indicates a value of less than 10)”. For the same molecule, the Kd [3] was 100 to 1000 nM.

`CNC(=O)c1ccc(N2CCC(N3CCCC(c4nc5cc(F)ccc5c(=O)[nH]4)C3)CC2)cn1` (single isomer, unassigned) [Compound 108a] was tested, and the IC50 [1] was 100 to 1000 nM, the Kd [2] was over 10000 nM and the Selectivity [3] was “− (− indicates a value of less than 10)”. The Kd [3] was 100 to 1000 nM.

For `CNC(=O)c1ccc(N2CCC(N3CCCC(c4nc5cc(F)ccc5c(=O)[nH]4)C3)CC2)cn1` (single isomer, unassigned) [Compound 108b], the IC50 [1] was 100 to 1000 nM, the Kd [2] was over 10000 nM and the Selectivity [3] was “+ (+ indicates a value of 10 to less than 50)”. It also gave a Kd [3] of 100 to 1000 nM.

With `NC(=O)c1ccc(N2CCC(N3CCCC(c4nc5ccccc5c(=O)[nH]4)C3)CC2)cn1` (single isomer, unassigned) [Compound 109a] the IC50 [1] was 10 to 100 nM, the Kd [2] was over 10000 nM and the Selectivity [3] was “+++ (+++ indicate a value of at least 100)”. The Kd [3] was under 10 nM.

With `NC(=O)c1ccc(N2CCC(N3CCCC(c4nc5ccccc5c(=O)[nH]4)C3)CC2)cn1` (single isomer, unassigned) [Compound 109b] the IC50 [1] was 10 to 100 nM, the Kd [2] was 1000 to 10000 nM and the Selectivity [3] was “+ (+ indicates a value of 10 to less than 50)”. It also gave a Kd [3] of 100 to 1000 nM.

With `O=C(NCCF)c1ccc(N2CCC(N3CCCC(c4nc5ccccc5c(=O)[nH]4)C3)CC2)cn1` (single isomer, unassigned) [Compound 110a] the IC50 [1] was under 10 nM, the Kd [2] was over 10000 nM and the Selectivity [3] was “+++ (+++ indicate a value of at least 100)”. It also gave a Kd [3] of under 10 nM.

With `O=C(NCCF)c1ccc(N2CCC(N3CCCC(c4nc5ccccc5c(=O)[nH]4)C3)CC2)cn1` (single isomer, unassigned) [Compound 110b] the IC50 [1] was 100 to 1000 nM, the Kd [2] was 100 to 1000 nM and the Selectivity [3] was “− (− indicates a value of less than 10)”. For the same molecule, the Kd [3] was 10 to 100 nM.

In the case of `CCNC(=O)c1ccc(N2CCC(N3CCC(c4nc5ccccc5c(=O)[nH]4)C3)CC2)cn1` (single isomer, unassigned) [Compound 111a], the IC50 [1] is reported as 10 to 100 nM, the Kd [2] is reported as 100 to 1000 nM and the Selectivity [3] is reported as “+ (+ indicates a value of 10 to less than 50)”. The Kd [3] was 10 to 100 nM.

With `CCNC(=O)c1ccc(N2CCC(N3CCC(c4nc5ccccc5c(=O)[nH]4)C3)CC2)cn1` (single isomer, unassigned) [Compound 111b] the IC50 [1] was under 10 nM, the Kd [2] was 100 to 1000 nM and the Selectivity [3] was “+++ (+++ indicate a value of at least 100)”. It also gave a Kd [3] of under 10 nM.

`CCc1nc(C(=O)NC)ccc1N1CCC(N2CCCC(c3nc4ccccc4c(=O)[nH]3)C2)CC1` (single isomer, unassigned) [Compound 112a] was tested, and the IC50 [1] was 100 to 1000 nM, the Kd [2] was 1000 to 10000 nM and the Selectivity [3] was “− (− indicates a value of less than 10)”. For the same molecule, the Kd [3] was 100 to 1000 nM.

For `CCc1nc(C(=O)NC)ccc1N1CCC(N2CCCC(c3nc4ccccc4c(=O)[nH]3)C2)CC1` (single isomer, unassigned) [Compound 112b], the IC50 [1] was 10 to 100 nM, the Kd [2] was over 10000 nM and the Selectivity [3] was “+++ (+++ indicate a value of at least 100)”. It also gave a Kd [3] of 10 to 100 nM.

For `O=c1[nH]c(C2CCCN(C3CCN(c4ccc(F)cc4F)CC3)C2)nc2ccccc12` (single isomer, unassigned) [Compound 113a], the IC50 [1] was 100 to 1000 nM, the Kd [2] was 100 to 1000 nM and the Selectivity [3] was “− (− indicates a value of less than 10)”. It also gave a Kd [3] of 100 to 1000 nM.

In the case of `O=c1[nH]c(C2CCCN(C3CCN(c4ccc(F)cc4F)CC3)C2)nc2ccccc12` (single isomer, unassigned) [Compound 113b], the IC50 [1] is reported as 100 to 1000 nM, the Kd [2] is reported as over 10000 nM and the Selectivity [3] is reported as “+ (+ indicates a value of 10 to less than 50)”. The Kd [3] was 100 to 1000 nM.

In the case of `CNC(=O)c1ccc(N2CCC(N3CCCC(c4nc5c(F)cccc5c(=O)[nH]4)C3)CC2)cn1` (single isomer, unassigned) [Compound 114a], the IC50 [1] is reported as under 10 nM, the Kd [2] is reported as over 10000 nM and the Selectivity [3] is reported as “+++ (+++ indicate a value of at least 100)”. It also gave a Kd [3] of under 10 nM.

With `CNC(=O)c1ccc(N2CCC(N3CCCC(c4nc5c(F)cccc5c(=O)[nH]4)C3)CC2)cn1` (single isomer, unassigned) [Compound 114b] the IC50 [1] was 100 to 1000 nM, the Kd [2] was 1000 to 10000 nM and the Selectivity [3] was “+ (+ indicates a value of 10 to less than 50)”. It also gave a Kd [3] of 100 to 1000 nM.

For `O=C(NCC(F)(F)F)c1ccc(N2CCC(N3CCCC(c4nc5ccccc5c(=O)[nH]4)C3)CC2)cn1` (single isomer, unassigned) [Compound 115a], the IC50 [1] was 100 to 1000 nM, the Kd [2] was 1000 to 10000 nM and the Selectivity [3] was “+ (+ indicates a value of 10 to less than 50)”. The Kd [3] was 100 to 1000 nM.

For `O=C(NCC(F)(F)F)c1ccc(N2CCC(N3CCCC(c4nc5ccccc5c(=O)[nH]4)C3)CC2)cn1` (single isomer, unassigned) [Compound 115b], the IC50 [1] was 10 to 100 nM, the Kd [2] was 1000 to 10000 nM and the Selectivity [3] was “+++ (+++ indicate a value of at least 100)”. The Kd [3] was 10 to 100 nM.

In the case of `COCCNC(=O)c1ccc(N2CCC(N3CCCC(c4nc5ccccc5c(=O)[nH]4)C3)CC2)cn1` (single isomer, unassigned) [Compound 116a], the IC50 [1] is reported as 10 to 100 nM, the Kd [2] is reported as over 10000 nM and the Selectivity [3] is reported as “+++ (+++ indicate a value of at least 100)”. For the same molecule, the Kd [3] was 10 to 100 nM.

In the case of `COCCNC(=O)c1ccc(N2CCC(N3CCCC(c4nc5ccccc5c(=O)[nH]4)C3)CC2)cn1` (single isomer, unassigned) [Compound 116b], the IC50 [1] is reported as 100 to 1000 nM, the Kd [2] is reported as 1000 to 10000 nM and the Selectivity [3] is reported as “− (− indicates a value of less than 10)”. It also gave a Kd [3] of 100 to 1000 nM.

`O=C(NCCF)c1ccc(N2CCC(N3CCC(c4nc5ccccc5c(=O)[nH]4)C3)CC2)cn1` (single isomer, unassigned) [Compound 117a] was tested, and the IC50 [1] was 10 to 100 nM, the Kd [2] was 100 to 1000 nM and the Selectivity [3] was “+ (+ indicates a value of 10 to less than 50)”. For the same molecule, the Kd [3] was 10 to 100 nM.

For `O=C(NCCF)c1ccc(N2CCC(N3CCC(c4nc5ccccc5c(=O)[nH]4)C3)CC2)cn1` (single isomer, unassigned) [Compound 117b], the IC50 [1] was under 10 nM, the Kd [2] was 100 to 1000 nM and the Selectivity [3] was “+++ (+++ indicate a value of at least 100)”. The Kd [3] was under 10 nM.

For `CCc1nc(C(=O)NC)ccc1N1CCC(N2CCC(c3nc4ccccc4c(=O)[nH]3)C2)CC1` (single isomer, unassigned) [Compound 118a], the IC50 [1] was under 10 nM, the Kd [2] was over 10000 nM and the Selectivity [3] was “+++ (+++ indicate a value of at least 100)”. It also gave a Kd [3] of under 10 nM.

With `CCc1nc(C(=O)NC)ccc1N1CCC(N2CCC(c3nc4ccccc4c(=O)[nH]3)C2)CC1` (single isomer, unassigned) [Compound 118b] the IC50 [1] was 10 to 100 nM, the Kd [2] was over 10000 nM and the Selectivity [3] was “++ (++ indicates a value of 50 to less than 100)”. It also gave a Kd [3] of 10 to 100 nM.

`CNC(=O)c1ccc(N2CCC(N3CCC(c4nc5c(F)cccc5c(=O)[nH]4)C3)CC2)cn1` (single isomer, unassigned) [Compound 121a] was tested, and the IC50 [1] was 10 to 100 nM, the Kd [2] was 100 to 1000 nM and the Selectivity [3] was “+ (+ indicates a value of 10 to less than 50)”. It also gave a Kd [3] of 10 to 100 nM.

In the case of `CNC(=O)c1ccc(N2CCC(N3CCC(c4nc5c(F)cccc5c(=O)[nH]4)C3)CC2)cn1` (single isomer, unassigned) [Compound 121b], the IC50 [1] is reported as under 10 nM, the Kd [2] is reported as 100 to 1000 nM and the Selectivity [3] is reported as “+++ (+++ indicate a value of at least 100)”. It also gave a Kd [3] of under 10 nM.

In the case of `CCNC(=O)c1ccc(N2CCC(N3CCCC(c4nc5ccccc5c(=O)[nH]4)C3)CC2)cn1` (single isomer, unassigned) [Compound 122a], the IC50 [1] is reported as under 10 nM, the Kd [2] is reported as over 10000 nM and the Selectivity [3] is reported as “+++ (+++ indicate a value of at least 100)”. It also gave a Kd [3] of 10 to 100 nM.

With `CCNC(=O)c1ccc(N2CCC(N3CCCC(c4nc5ccccc5c(=O)[nH]4)C3)CC2)cn1` (single isomer, unassigned) [Compound 122b] the IC50 [1] was 10 to 100 nM, the Kd [2] was 1000 to 10000 nM and the Selectivity [3] was “− (− indicates a value of less than 10)”. It also gave a Kd [3] of 100 to 1000 nM.

With `NC(=O)c1ccc(N2CCC(N3CCC(c4nc5ccccc5c(=O)[nH]4)C3)CC2)cn1` (single isomer, unassigned) [Compound 123a] the IC50 [1] was 10 to 100 nM, the Kd [2] was 100 to 1000 nM and the Selectivity [3] was “+ (+ indicates a value of 10 to less than 50)”. For the same molecule, the Kd [3] was 10 to 100 nM.
